Measurements from PubChem BioAssay (NCI).
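Briefly, cells in 96-well plates were exposed to five compound concentrations for 48 h, and endpoints were estimated by linear interpolation. TGI: total growth inhibition.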

Columns and labels:
Test in all cases: NCI tumour cell line growth inhibition, 48 h
UACC-257 melanoma = test system: UACC-257 melanoma
OVCAR-5 ovarian = test system: OVCAR-5 ovarian
SN12C renal = test system: SN12C renal
HCT-15 colon = test system: HCT-15 colon
BT-549 breast = test system: BT-549 breast
SK-OV-3 ovarian = test system: SK-OV-3 ovarian
MALME-3M melanoma = test system: MALME-3M melanoma
HL-60(TB) leukemia = test system: HL-60(TB) leukemia
CCRF-CEM leukemia = test system: CCRF-CEM leukemia
RXF 393 renal = test system: RXF 393 renal
SW-620 colon = test system: SW-620 colon

Structure (SMILES)	TGI (UACC-257 melanoma)	TGI (OVCAR-5 ovarian)	TGI (SN12C renal)	TGI (HCT-15 colon)	TGI (BT-549 breast)	TGI (SK-OV-3 ovarian)	TGI (MALME-3M melanoma)	TGI (HL-60(TB) leukemia)	TGI (CCRF-CEM leukemia)	TGI (RXF 393 renal)	TGI (SW-620 colon)
C=CC/C(C(=O)OC)=C(/C(=O)OC)N(CCC)CCC	> 100 µM	> 100 µM	> 100 µM	> 100 µM	> 100 µM	> 100 µM	> 100 µM	64.4 µM	> 100 µM	> 100 µM	> 100 µM
Cc1cc(C)c2c(n1)S(=O)(=O)N(CCCN1CCN(c3cccc(C(F)(F)F)c3)CC1)/C(=C(\O)c1ccc(Cl)cc1)C2=O	8.49 µM	18.1 µM	13.8 µM	13.9 µM	19.3 µM	20.3 µM	15.8 µM	6.15 µM	> 100 µM	19.1 µM	39 µM
Cc1nc2cc(C(F)(F)F)ccc2[nH]c1=O	> 100 µM	> 100 µM	> 100 µM	> 100 µM	> 100 µM	> 100 µM	> 100 µM	> 100 µM	> 100 µM	> 100 µM	> 100 µM
N#Cc1c2c(c(Nc3ccc(F)cc3)n3c1nc1ccccc13)CCC2	24.1 µM	13.9 µM	4.59 µM	13.1 µM	17.8 µM	26.8 µM	19.9 µM	> 100 µM	4.52 µM	7.9 µM	5.71 µM
O=C1N[C@@H]2c3c(csc3Br)C(=O)[C@@H]2O1	58.9 µM	> 100 µM	> 100 µM	> 100 µM	> 100 µM	> 100 µM	> 100 µM	64.9 µM	40.1 µM	43.7 µM	50.5 µM
Cc1cccc(C[C@@]2(SCc3ccccc3)C(C)(C)[C@@H]3CC[C@@]2(C)C3)n1	29.9 µM	34.9 µM	31.5 µM	26.8 µM	42.6 µM	51.4 µM	33 µM	29.7 µM	27.6 µM	30.9 µM	30.5 µM
O=[N+]([O-])C(=C(Sc1ccccc1)Sc1ccccc1)C(Cl)=C(Cl)Cl	1.1 µM	1.48 µM	1.35 µM	1.02 µM	4.61 µM	24.6 µM	1.37 µM	0.813 µM	0.0419 µM	1.99 µM	0.228 µM
O=C1/C(=C/c2ccc([N+](=O)[O-])cc2)CNC/C1=C\c1ccc([N+](=O)[O-])cc1	> 100 µM	> 69.6 µM	15.5 µM	3.06 µM	7.73 µM	> 100 µM	> 100 µM	10 µM	2.97 µM	25.1 µM	1.78 µM
O=C1/C(=C/c2ccc(F)cc2)CNC/C1=C\c1ccc(F)cc1	28 µM	8.99 µM	6.71 µM	1.97 µM	3.67 µM	29.6 µM	13.2 µM	> 100 µM	> 100 µM	3.41 µM	0.754 µM
CC(=O)CC(=O)c1cc2c(=O)oc(C)cc2oc1=O	> 37.5 µM	> 37.5 µM	> 37.5 µM	> 37.5 µM	> 37.5 µM	> 37.5 µM	> 37.5 µM	> 37.5 µM	> 37.5 µM	> 37.5 µM	> 37.5 µM
Cc1ccc(C2=Nc3c(c(C)nn3-c3ccccc3)N=C(C(=O)O)C2)cc1	> 10 µM	> 10 µM	> 10 µM	> 10 µM	> 10 µM	> 10 µM	> 10 µM	> 10 µM	> 10 µM	> 10 µM	> 10 µM
O=C(O)c1ccc(NS(=O)(=O)Cc2ccccc2)cc1	> 100 µM	> 100 µM	> 100 µM	> 100 µM	> 100 µM	> 100 µM	> 100 µM	> 100 µM	> 100 µM	> 100 µM	> 100 µM
CCOC(=O)C1C(=O)CC(O)(c2ccccc2)C(C(=O)OCC)C1c1ccc(OC)cc1 (stereo not drawn)	> 100 µM	> 100 µM	> 100 µM	> 100 µM	> 100 µM	89.9 µM	> 100 µM	> 47.8 µM	79.2 µM	50.5 µM	> 74.3 µM
